In patent US9790202B2, “Anthranilamide derivatives as pesticides” (priority 2010, dated 2017):

Columns and labels:
[1] = system: larvae of the mustard beetle (Phaedon cochleariae); assay: Phaedon test (PHAECO spray treatment), Use Example 6, comparison with prior art; type: in vivo; conditions: 168 h, 7 d
Description: (§1) Phaedon Test (PHAECO Spray Treatment)
Solvent: 78.0 parts by weight of acetone
1.5 parts by weight of dimethylformamide
(§2) Emulsifier: 0.5 part by weight of alkylaryl polyglycol ether
To produce an appropriate active ingredient formulation, 1 part by weight of active ingredient is mixed with the stated amounts of solvent and emulsifier, and the concentrate is diluted with emulsifier-containing water to the desired concentration. Leaf discs of Chinese cabbage (Brassica pekinensis) are sprayed with an active ingredient formulation of the desired concentration and, after drying, populated with larvae of the mustard beetle (Phaedon cochleariae).
After the desired period of time, the effect in % is determined. 100% means that all beetle larvae have been killed; 0% means that no beetle larvae have been killed.

[2] = log P determination by HPLC on reversed-phase columns (C 18), acidic range; type: physicochemical; conditions: for chromatographic logP: pH 2.7, LOGP (HCOOH)
Description: The log P values reported in the table above and in the Preparation Examples were determined in accordance with EEC Directive 79/831 Annex V.A8 by HPLC (High Performance Liquid Chromatography) on reversed-phase columns (C 18), with the following methods:
The LC-MS determination in the acidic range is effected at pH 2.7 using 0.1% aqueous formic acid and acetonitrile (contains 0.1% formic acid) as eluents, linear gradient from 10% acetonitrile to 95% acetonitrile
The calibration was effected with unbranched alkan-2-ones (having 3 to 16 carbon atoms) with known log P values (log P values determined on the basis of the retention times by linear interpolation between two successive alkanones).

[3] = system: green peach aphid (Myzus persicae); assay: Myzus test (MYZUPE spray treatment); type: in vivo; conditions: in Brassica rapa, foliar, 144 h, read-out: efficacy in % (aphids killed)
Description: Myzus Test (MYZUPE Spray Treatment)
Solvent: 78 parts by weight of acetone 1.5 parts by weight of dimethylformamide
as §2
(§3) To produce an appropriate active ingredient formulation, 1 part by weight of active ingredient is mixed with the stated amounts of solvent and emulsifier, and the concentrate is diluted with emulsifier-containing water to the desired concentration.
Leaf discs of Chinese cabbage (Brassica pekinensis) infested by all stages of the green peach aphid (Myzus persicae) are sprayed with an active ingredient formulation of the desired concentration.
After 6 days, the efficacy in % is determined 100% means that all aphids have been killed; 0% means that no aphids have been killed.

[4] = system: caterpillars of the armyworm (Spodoptera frugiperda); assay: Spodoptera frugiperda test (SPODFR spray treatment); type: in vivo; conditions: for pest or weed control at 100 g/ha: Spodoptera frugiperda, in Zea mays, foliar, 168 h, read-out: efficacy in % (caterpillars killed)
Description: Spodoptera frugiperda Test (SPODFR Spray Treatment)
(§4) Solvent: 78.0 parts by weight of acetone 1.5 parts by weight of dimethylformamide
as §2, §3
Leaf discs of maize (Zea mays) are sprayed with an active ingredient formulation of the desired concentration and, after drying, populated with caterpillars of the armyworm (Spodoptera frugiperda).
After 7 days, the efficacy in % is determined 100% means that all caterpillars have been killed; 0% means that no caterpillars have been killed.

[5] = system: Lucilia cuprina 1st instar larvae; assay: Lucilia cuprina test (LUCICU); type: in vivo; conditions: 100 ppm, treated horsemeat, after 48 h
Description: Lucilia cuprina Test (LUCICU)
Species: Lucilia cuprina 1st larval stage (age: 24 hours)
(§5) Solvent: dimethyl sulphoxide
(§6) To prepare an appropriate active ingredient formulation, 10 mg of active ingredient are mixed with 0.5 ml of dimethyl sulphoxide and the concentrate is diluted with water to the desired concentration.
Vessels containing 1 cm^3 of horsemeat which had been treated with the active ingredient formulation are populated with about 20 Lucilia cuprina 1st instar larvae.
After 48 h, the kill in % is determined 100% means that all larvae have been killed; 0% means that no larvae have been killed.

adult Musca domestica = assay: Musca domestica test (MUSCDO); type: in vivo; conditions: 100 ppm, treated sponge, after 2 days
Description: Musca domestica Test (MUSCDO)
as §5, §6
Vessels containing a sponge treated with the active ingredient preparation of the desired concentration are populated with 10 adult Musca domestica.
After 2 days, the kill in % is determined 100% means that all flies have been killed; 0% means that no flies have been killed.

[6] = system: larvae of the mustard beetle (Phaedon cochleariae); assay: Phaedon test (PHAECO spray treatment), Use Example 2; type: in vivo; conditions: in Brassica rapa, foliar, 168 h, read-out: efficacy in % (beetle larvae killed)
Description: as §1, §4, §2, §3
Leaf discs of Chinese cabbage (Brassica pekinensis) are sprayed with an active ingredient formulation of the desired concentration and, after drying, populated with larvae of the mustard beetle (Phaedon cochleariae).
After 7 days, the efficacy in % is determined 100% means that all beetle larvae have been killed; 0% means that no beetle larvae have been killed.

SMILES	larval mortality at 20 g/ha [1] [%]	LOGP (HCOOH) ([2]; pH 2.7)	pest or weed control at 100 g/ha [3] [%]	pest or weed control at 100 g/ha [4] [%]	kill in % (larvae killed) [5] [%]	kill in % (flies killed) (adult Musca domestica) [%]	chromatographic logP [2]	pest or weed control at 100 g/ha [6] [%]	efficacy in % (caterpillars killed) ([4]; 100 g/ha, spray on maize leaf discs, after 7 days) [%]
CNC(=O)c1cc(C)cc(C)c1NC(=O)c1cc(Cn2nnc(C(F)(F)F)n2)nn1-c1ncccc1Cl [Comparative Example, reference compound]	0	–	–	–	–	–	–	–	–
CC(=O)c1cc(C)c(NC(=O)c2cc(Cn3nnc(C(F)(F)F)n3)nn2-c2ncccc2Cl)c(C(=O)NC(C)(C)C)c1 [Compound 1]	–	3.26	100	100	100	100	–	–	–
CNC(=O)c1cc(C(=O)OC)cc(C)c1NC(=O)c1cc(Cn2nnc(C(F)(F)F)n2)nn1-c1ncccc1Cl [Compound 2]	–	–	90	100	100	90	2.77	100	–
COC(=O)c1cc(C)c(NC(=O)c2cc(Cn3nnc(C(F)(F)F)n3)nn2-c2ncccc2Cl)c(C(=O)NC(C)(C)C)c1 [Compound 4]	–	–	–	100	100	100	3.52	100	–
COC(=O)c1cc(C)c(NC(=O)c2cc(Cn3nnc(C(F)(F)F)n3)nn2-c2ncccc2Cl)c(C(N)=O)c1 [Compound 5]	–	–	90	100	100	–	2.56	100	–
CC(=O)c1cc(C)c(NC(=O)c2cc(Cn3nnc(C(F)(F)F)n3)nn2-c2ncccc2Cl)c(C(=O)NC(C)(C)C)c1 [Compound 6]	–	–	–	–	100	90	2.87	–	100
CNC(=O)c1cc(C(N)=S)cc(C)c1NC(=O)c1cc(Cn2nnc(C(F)(F)F)n2)nn1-c1ncccc1Cl [Compound 23]	100	–	100	100	–	–	2.26	100	–
